Laboratory results: PMC5218480 (PLoS ONE, 2017)

System: MV-4-11 cells
Test: Gene expression microarray analysis (Affymetrix PrimeView) and GSEA
Assay type: cell-based, human
Design: RFU PODN (11730768_x_at) / Fold change /veh PODN (11730768_x_at) / RFU LINC00158 (11744669_a_at) / Fold change /veh LINC00158 (11744669_a_at) / RFU DUSP10 (11751237_a_at) / Fold change /veh DUSP10 (11751237_a_at) / RFU ID3 (11757404_x_at) / Fold change /veh ID3 (11757404_x_at) / RFU PLEKHG5 (11737974_s_at) / Fold change /veh PLEKHG5 (11737974_s_at) / RFU LRRC4B (11730491_at) / Fold change /veh LRRC4B (11730491_at) / RFU GIMAP4 (11747438_a_at) / Fold change /veh GIMAP4 (11747438_a_at) / RFU KRT8 (11758183_x_at) / Fold change /veh KRT8 (11758183_x_at) / RFU CNN1 (11734310_a_at) / Fold change /veh CNN1 (11734310_a_at) / RFU VPS37D (11726825_at) / Fold change /veh VPS37D (11726825_at) / RFU C10orf10 (11716522_x_at) / Fold change /veh C10orf10 (11716522_x_at) / RFU KIR2DL2 /// KIR2DL4 /// KIR2DL5A /// KIR2DL5B /// KIR2DS1 /// KIR2DS2 /// KIR2DS3 /// KIR2DS4 /// KIR3DL3 /// KIR3DL3 /// KIR3DS1 (11738374_at) / Fold change /veh KIR2DL2 /// KIR2DL4 /// KIR2DL5A /// KIR2DL5B /// KIR2DS1 /// KIR2DS2 /// KIR2DS3 /// KIR2DS4 /// KIR3DL3 /// KIR3DL3 /// KIR3DS1 (11738374_at) / RFU C1QL1 (11718748_at) / Fold change /veh C1QL1 (11718748_at) / RFU TMPRSS4 (11747572_a_at) / Fold change /veh TMPRSS4 (11747572_a_at) / RFU HAMP (11756126_x_at) / Fold change /veh HAMP (11756126_x_at) / RFU RNFT2 (11725882_a_at) / Fold change /veh RNFT2 (11725882_a_at) / RFU NR4A2 (11747474_a_at) / Fold change /veh NR4A2 (11747474_a_at) / RFU ABCC12 (11746883_a_at) / Fold change /veh ABCC12 (11746883_a_at) / RFU TMEM136 (11760407_x_at) / Fold change /veh TMEM136 (11760407_x_at) / RFU CLDN22 /// WWC2 (11732394_at) / Fold change /veh CLDN22 /// WWC2 (11732394_at) / RFU HLA-DPB1 (11760878_x_at) / Fold change /veh HLA-DPB1 (11760878_x_at) / RFU SPINT1 (11716480_a_at) / Fold change /veh SPINT1 (11716480_a_at) / RFU GAP43 (11754022_s_at) / Fold change /veh GAP43 (11754022_s_at) / RFU A4GNT (11735810_at) / Fold change /veh A4GNT (11735810_at) / RFU PRB3 (11715151_x_at) / Fold change /veh PRB3 (11715151_x_at) / RFU TUBB4B (11761932_at) / Fold change /veh TUBB4B (11761932_at) / RFU CAPN14 (11732068_a_at) / Fold change /veh CAPN14 (11732068_a_at) / RFU TMCC2 (11721928_a_at) / Fold change /veh TMCC2 (11721928_a_at) / RFU IRGQ (11745062_a_at) / Fold change /veh IRGQ (11745062_a_at) / RFU FAM174B (11720279_a_at) / Fold change /veh FAM174B (11720279_a_at) / RFU TMPRSS4 (11748680_a_at) / Fold change /veh TMPRSS4 (11748680_a_at) / RFU FAM212B (11763350_a_at) / Fold change /veh FAM212B (11763350_a_at) / RFU PLEKHG5 (11743358_a_at) / Fold change /veh PLEKHG5 (11743358_a_at) / RFU ZSCAN30 (11745921_a_at) / Fold change /veh ZSCAN30 (11745921_a_at) / RFU CMKLR1 (11741424_a_at) / Fold change /veh CMKLR1 (11741424_a_at) / RFU LOC101060620 /// MAPK8IP1 (11723275_at) / Fold change /veh LOC101060620 /// MAPK8IP1 (11723275_at) / RFU SPTSSB (11747773_x_at) / Fold change /veh SPTSSB (11747773_x_at) / RFU PRSS12 (11739890_at) / Fold change /veh PRSS12 (11739890_at) / RFU BIN1 (11741810_x_at) / Fold change /veh BIN1 (11741810_x_at) / RFU WNT11 (11732464_a_at) / Fold change /veh WNT11 (11732464_a_at) / RFU C10orf10 (11716521_a_at) / Fold change /veh C10orf10 (11716521_a_at) / RFU C5orf56 (11738089_at) / Fold change /veh C5orf56 (11738089_at) / RFU CYB561 (11721691_x_at) / Fold change /veh CYB561 (11721691_x_at) / RFU ANKRD19P (11752326_a_at) / Fold change /veh ANKRD19P (11752326_a_at) / RFU OR2T12 /// OR2T33 /// OR2T8 (11738714_s_at) / Fold change /veh OR2T12 /// OR2T33 /// OR2T8 (11738714_s_at) / RFU VCAN (11748164_a_at) / Fold change /veh VCAN (11748164_a_at) / RFU JSRP1 (11732532_at) / Fold change /veh JSRP1 (11732532_at) / RFU KRTAP10-11 (11738290_x_at) / Fold change /veh KRTAP10-11 (11738290_x_at) / RFU MYO3A (11730013_a_at) / Fold change /veh MYO3A (11730013_a_at) / RFU EBF3 (11725865_a_at) / Fold change /veh EBF3 (11725865_a_at) / RFU CAMK2N1 (11719241_x_at) / Fold change /veh CAMK2N1 (11719241_x_at) / RFU C5orf56 (11738088_a_at) / Fold change /veh C5orf56 (11738088_a_at) / RFU OLFML3 (11715873_a_at) / Fold change /veh OLFML3 (11715873_a_at) / RFU LOC100653217 /// NTM (11731650_a_at) / Fold change /veh LOC100653217 /// NTM (11731650_a_at) / RFU MAPK11 (11762145_a_at) / Fold change /veh MAPK11 (11762145_a_at) / RFU FIZ1 (11724087_x_at) / Fold change /veh FIZ1 (11724087_x_at) / RFU OASL (11726364_x_at) / Fold change /veh OASL (11726364_x_at) / RFU SOX15 (11748057_x_at) / Fold change /veh SOX15 (11748057_x_at) / RFU CD79A (11719716_a_at) / Fold change /veh CD79A (11719716_a_at) / RFU HIST1H1D (11736915_at) / Fold change /veh HIST1H1D (11736915_at) / RFU CASKIN2 (11723855_a_at) / Fold change /veh CASKIN2 (11723855_a_at) / RFU LOC730098 (11760151_x_at) / Fold change /veh LOC730098 (11760151_x_at) / RFU OR4N2 (11742367_at) / Fold change /veh OR4N2 (11742367_at) / RFU PRRT2 (11749266_a_at) / Fold change /veh PRRT2 (11749266_a_at) / RFU SNX32 (11753110_a_at) / Fold change /veh SNX32 (11753110_a_at) / RFU CDHR5 (11726645_a_at) / Fold change /veh CDHR5 (11726645_a_at) / RFU RCAN1 (11760418_a_at) / Fold change /veh RCAN1 (11760418_a_at) / RFU FAM167A (11723789_a_at) / Fold change /veh FAM167A (11723789_a_at) / RFU FAM26E (11764081_at) / Fold change /veh FAM26E (11764081_at) / RFU ISYNA1 (11749810_s_at) / Fold change /veh ISYNA1 (11749810_s_at) / RFU ACY1 (11761880_at) / Fold change /veh ACY1 (11761880_at) / RFU 11764098_at / Fold change /veh 11764098_at / RFU SAMD14 (11745864_x_at) / Fold change /veh SAMD14 (11745864_x_at) / RFU NPB (11741838_a_at) / Fold change /veh NPB (11741838_a_at) / RFU TMPRSS6 (11731388_a_at) / Fold change /veh TMPRSS6 (11731388_a_at) / RFU KRTAP10-2 (11738614_at) / Fold change /veh KRTAP10-2 (11738614_at) / RFU ARHGAP8 /// PRR5-ARHGAP8 (11727945_x_at) / Fold change /veh ARHGAP8 /// PRR5-ARHGAP8 (11727945_x_at) / RFU KRTAP5-7 /// NADSYN1 (11734609_at) / Fold change /veh KRTAP5-7 /// NADSYN1 (11734609_at) / RFU RASL12 (11751679_a_at) / Fold change /veh RASL12 (11751679_a_at) / RFU CDKN2B (11736163_a_at) / Fold change /veh CDKN2B (11736163_a_at) / RFU PRF1 (11729649_at) / Fold change /veh PRF1 (11729649_at) / RFU, ZNF638 /// ZNF638-IT1 / Fold change vs veh, ZNF638 /// ZNF638-IT1 / RFU, PANK3 / Fold change vs veh, PANK3 / RFU, SH3YL1 / Fold change vs veh, SH3YL1 / RFU, ZEB2 / Fold change vs veh, ZEB2 / RFU, NRIP1 / Fold change vs veh, NRIP1 / RFU, PTTG1IP / Fold change vs veh, PTTG1IP / RFU, CAPN2 / Fold change vs veh, CAPN2 / RFU, MED14 / Fold change vs veh, MED14 / RFU, SNORA58 / Fold change vs veh, SNORA58 / RFU, C1orf63 / Fold change vs veh, C1orf63 / RFU, LRRFIP1 / Fold change vs veh, LRRFIP1 / RFU, NDUFAF7 / Fold change vs veh, NDUFAF7 / RFU, SLC12A2 / Fold change vs veh, SLC12A2 / RFU, IBTK / Fold change vs veh, IBTK / RFU, ESF1 / Fold change vs veh, ESF1 / Fold change vs veh, TMEM50B / RFU, TAOK1 / Fold change vs veh, TAOK1 / RFU, ACBD3 / Fold change vs veh, ACBD3 / RFU, TMA16 / Fold change vs veh, TMA16 / RFU, RWDD3 / Fold change vs veh, RWDD3 / RFU, BCAT1 / Fold change vs veh, BCAT1 / RFU, EDEM3 / Fold change vs veh, EDEM3 / RFU, TMEM33 / Fold change vs veh, TMEM33 / RFU, WDR75 / Fold change vs veh, WDR75 / RFU, AHCTF1 / Fold change vs veh, AHCTF1 / RFU, TFRC / Fold change vs veh, TFRC / RFU, ZDHHC17 / Fold change vs veh, ZDHHC17 / RFU, NOM1 / Fold change vs veh, NOM1 / RFU, ARL8B / Fold change vs veh, ARL8B / RFU, ZBTB11 / Fold change vs veh, ZBTB11 / RFU, TAMM41 / Fold change vs veh, TAMM41 / RFU, KIAA1704 /// LOC100996395 / Fold change vs veh, KIAA1704 /// LOC100996395 / RFU, ING1 / Fold change vs veh, ING1 / RFU, TRMT61B / Fold change vs veh, TRMT61B / RFU, FUBP3 / Fold change vs veh, FUBP3 / RFU, TP53 / Fold change vs veh, TP53 / RFU, TNKS2 / Fold change vs veh, TNKS2 / RFU, ZFP14 / Fold change vs veh, ZFP14 / RFU, ACTR2 / Fold change vs veh, ACTR2 / RFU, PPP3R1 / Fold change vs veh, PPP3R1 / RFU, PIK3R1 / Fold change vs veh, PIK3R1 / RFU, HNRNPA1 / Fold change vs veh, HNRNPA1 / RFU, RNF170 / Fold change vs veh, RNF170 / RFU, ZNF28 / Fold change vs veh, ZNF28 / RFU, RNGTT / Fold change vs veh, RNGTT / RFU, OGT / Fold change vs veh, OGT / RFU, BRD1 / Fold change vs veh, BRD1 / RFU, MARS / Fold change vs veh, MARS / RFU, ZNF655 / Fold change vs veh, ZNF655 / RFU, FAHD1 / Fold change vs veh, FAHD1 / RFU, BDP1 / Fold change vs veh, BDP1 / RFU, LRRCC1 / Fold change vs veh, LRRCC1 / RFU, ARID1A / Fold change vs veh, ARID1A / RFU, ZNF146 / Fold change vs veh, ZNF146 / RFU, ZNF330 / Fold change vs veh, ZNF330 / RFU, GPN3 / Fold change vs veh, GPN3 / RFU, C9orf123 / Fold change vs veh, C9orf123 / RFU, N4BP2L2 / Fold change vs veh, N4BP2L2 / RFU, ARFIP1 / Fold change vs veh, ARFIP1 / RFU, FAM179B / Fold change vs veh, FAM179B / RFU, BCL10 / Fold change vs veh, BCL10 / RFU, UHRF1BP1L / Fold change vs veh, UHRF1BP1L / RFU, BET1 / Fold change vs veh, BET1 / RFU, CNOT2 / Fold change vs veh, CNOT2 / RFU, ZNF268 / Fold change vs veh, ZNF268 / Fold change vs veh, ZNF507 / RFU, DGCR2 / Fold change vs veh, DGCR2 / RFU, WDSUB1 / Fold change vs veh, WDSUB1 / Fold change vs veh, HSP90B1 /// MIR3652 / RFU, ADSS / Fold change vs veh, ADSS / RFU, GK / Fold change vs veh, GK / RFU, ZNF148 / Fold change vs veh, ZNF148 / RFU, TAF9 / Fold change vs veh, TAF9 / RFU, SLC1A5 / Fold change vs veh, SLC1A5 / RFU, SLMO2 / Fold change vs veh, SLMO2 / RFU, ABCC4 / Fold change vs veh, ABCC4 / RFU, LOC101060439 /// RAP1B / Fold change vs veh, LOC101060439 /// RAP1B / RFU, RFX7 / Fold change vs veh, RFX7 / RFU, GTPBP10 / Fold change vs veh, GTPBP10 / RFU, CNEP1R1 / Fold change vs veh, CNEP1R1 / RFU, BIVM-ERCC5 /// ERCC5 / Fold change vs veh, BIVM-ERCC5 /// ERCC5 / RFU, ILF3 / Fold change vs veh, ILF3 / RFU 11762660_at / Fold change /veh 11762660_at / RFU VCAN (11757783_s_at) / Fold change /veh VCAN (11757783_s_at) / RFU DDX43 (11728927_at) / Fold change /veh DDX43 (11728927_at) / RFU KRT8 (11758188_x_at) / Fold change /veh KRT8 (11758188_x_at) / RFU NKD1 (11759106_at) / Fold change /veh NKD1 (11759106_at) / RFU SRD5A1 (11742802_a_at) / Fold change /veh SRD5A1 (11742802_a_at) / RFU TPSAB1 /// TPSB2 (11721975_s_at) / Fold change /veh TPSAB1 /// TPSB2 (11721975_s_at) / RFU GSTM3 (11746129_a_at) / Fold change /veh GSTM3 (11746129_a_at) / RFU IL23R (11737362_x_at) / Fold change /veh IL23R (11737362_x_at) / RFU TMEM51 (11727254_a_at) / Fold change /veh TMEM51 (11727254_a_at) / RFU PIWIL2 (11732686_x_at) / Fold change /veh PIWIL2 (11732686_x_at) / RFU ORM1 (11744905_x_at) / Fold change /veh ORM1 (11744905_x_at) / RFU CCDC152 (11743942_at) / Fold change /veh CCDC152 (11743942_at) / RFU ECM1 (11717891_a_at) / Fold change /veh ECM1 (11717891_a_at) / RFU IL23R (11748794_a_at) / Fold change /veh IL23R (11748794_a_at) / RFU TNFAIP8L3 (11732012_x_at) / Fold change /veh TNFAIP8L3 (11732012_x_at) / RFU MBOAT4 (11741988_at) / Fold change /veh MBOAT4 (11741988_at) / RFU 11764193_at / Fold change /veh 11764193_at / RFU TMEM53 (11763286_at) / Fold change /veh TMEM53 (11763286_at) / RFU MAGEB2 (11727129_at) / Fold change /veh MAGEB2 (11727129_at) / RFU TMEM200A (11744735_a_at) / Fold change /veh TMEM200A (11744735_a_at) / RFU CCDC152 (11751479_a_at) / Fold change /veh CCDC152 (11751479_a_at) / RFU FAM211A (11726209_a_at) / Fold change /veh FAM211A (11726209_a_at) / RFU RGS16 (11746705_a_at) / Fold change /veh RGS16 (11746705_a_at) / RFU VCAN (11755009_s_at) / Fold change /veh VCAN (11755009_s_at) / RFU RHOB (11743442_s_at) / Fold change /veh RHOB (11743442_s_at) / RFU RGS16 (11720943_a_at) / Fold change /veh RGS16 (11720943_a_at) / RFU RGS16 (11720944_at) / Fold change /veh RGS16 (11720944_at) / RFU, VPS4B / Fold change vs veh, VPS4B / RFU, CREB1 / Fold change vs veh, CREB1 / RFU, DNAJC13 / Fold change vs veh, DNAJC13 / RFU, GNAQ / Fold change vs veh, GNAQ / RFU, CDK5R1 / Fold change vs veh, CDK5R1 / RFU, ZRANB3 / Fold change vs veh, ZRANB3 / RFU, CUL4A / Fold change vs veh, CUL4A / RFU, CCNY / Fold change vs veh, CCNY / RFU, UFL1 / Fold change vs veh, UFL1 / RFU, COG3 / Fold change vs veh, COG3 / RFU, DIAPH2 / Fold change vs veh, DIAPH2 / RFU, SKA2 / Fold change vs veh, SKA2 / RFU, AFF3 / Fold change vs veh, AFF3 / RFU, LMF1 / Fold change vs veh, LMF1 / RFU, IPO11 / Fold change vs veh, IPO11 / RFU, DFFB / Fold change vs veh, DFFB / RFU, FOXP1 / Fold change vs veh, FOXP1 / RFU, CARD8 / Fold change vs veh, CARD8 / RFU, STRN3 / Fold change vs veh, STRN3 / RFU, ADK / Fold change vs veh, ADK / RFU, RASSF2 / Fold change vs veh, RASSF2 / RFU, WIPF1 / Fold change vs veh, WIPF1 / RFU, LARP1B / Fold change vs veh, LARP1B / RFU, RASA1 / Fold change vs veh, RASA1 / RFU, RB1 / Fold change vs veh, RB1 / RFU, PPFIA1 / Fold change vs veh, PPFIA1 / RFU, MAT2A / Fold change vs veh, MAT2A / RFU, CCT5 / Fold change vs veh, CCT5 / RFU, WDR92 / Fold change vs veh, WDR92 / RFU, CUX1 / Fold change vs veh, CUX1 / RFU, TTC7A / Fold change vs veh, TTC7A / RFU, TMEM135 / Fold change vs veh, TMEM135 / RFU, DEPTOR / Fold change vs veh, DEPTOR / RFU, CPM / Fold change vs veh, CPM / RFU, DNAJB6 / Fold change vs veh, DNAJB6 / RFU, CACNA2D3 / Fold change vs veh, CACNA2D3 / RFU, DTX4 / Fold change vs veh, DTX4 / RFU, TFCP2 / Fold change vs veh, TFCP2 / RFU, GMCL1 /// GMCL1P1 / Fold change vs veh, GMCL1 /// GMCL1P1 / RFU, AEBP2 / Fold change vs veh, AEBP2 / RFU, SNHG1 /// SNORD22 /// SNORD25 /// SNORD26 /// SNORD27 /// SNORD28 /// SNORD29 /// SNORD31 / Fold change vs veh, SNHG1 /// SNORD22 /// SNORD25 /// SNORD26 /// SNORD27 /// SNORD28 /// SNORD29 /// SNORD31 / Fold change (Aza/veh), C12orf56 (ProbeSet 11735607_a_at) / Fold change (ACY-1035/veh), C12orf56 (ProbeSet 11735607_a_at) / Fold change (Aza/veh), FGFR1OP (ProbeSet 11751329_s_at) / Fold change (ACY-1035/veh), FGFR1OP (ProbeSet 11751329_s_at) / Fold change (Aza/veh), VPS36 (ProbeSet 11739960_a_at) / Fold change (ACY-1035/veh), VPS36 (ProbeSet 11739960_a_at) / RFU SYPL1 (11715823_x_at) / Fold change /veh SYPL1 (11715823_x_at) / RFU IGFBP7 (11715501_s_at) / Fold change /veh IGFBP7 (11715501_s_at) / RFU REEP3 (11722064_at) / Fold change /veh REEP3 (11722064_at) / RFU IGLL1 (11728026_x_at) / Fold change /veh IGLL1 (11728026_x_at): dose or concentration left out as unconfirmed
Settings: ProbeSet 11718701_a_at; LIST B

Nc1ccc(-c2cccs2)cc1NC(=O)c1ccc2c(c1)cc(C1CC1)n2CCN1CCOCC1 [ACY-1035]
Fold change vs veh, ARFIP1: 0.86
